Test system: A549 cells
Assay: A549 xenografts, ULK inhibitor alone and in combination with carboplatin
Format: in vivo, nude mice
Details: carboplatin 25 mg/kg every three days alone, day 53
Experimental: A549 cells (5M cells) were injected bilaterally into the flanks of thirty-six nude mice to create tumor xenografts in order to assess the efficacy of Compound 14 in treating non-small cell lung cancer tumors both alone and in combination with carboplatin, the current standard of care therapy for non-small cell lung cancer. After 11 days of letting tumor cells proliferate (at which point tumors were ˜50 mm^3 in volume), administration of carboplatin, Compound 14, or combinations began. One cohort of six mice received 20 mg/kg twice daily doses of Compound 14 alone, one cohort of six mice received 30 mg/kg twice daily doses of Compound 14 alone, one cohort of six mice received 25 mg/kg doses of carboplatin every three days, one cohort of six mice received 20 mg/kg twice daily doses of Compound 14 in conjunction with 25 mg/kg doses of carboplatin every three days, one cohort of six mice received 30 mg/kg twice daily doses of Compound 14 in conjunction with 25 mg/kg doses of carboplatin every three days, and the remaining six mice were treated with vehicle. Treatment and monitoring was continued until day 53 post inoculation of tumor cells (42 days of treatment).

Compound | final tumor average volume
N.N.O=C([O-])C1(C(=O)[O-])CCC1.[Pt+2] [carboplatin, reference compound] | ~200 mm^3

Same assay, conditions: monotherapy: carboplatin 25 mg/kg every three days, Compound 14 20 mg/kg twice daily

Compound | tumor growth compared to the control
N.N.O=C([O-])C1(C(=O)[O-])CCC1.[Pt+2] [carboplatin, reference compound] | markedly reduced growth compared to the control

Test system: MIA PaCa-2 cells
Assay: MIA PaCa-2 xenografts, ULK inhibitor alone versus gemcitabine
Format: in vivo, nude mice
Details: day 42, Compound 14 20 mg/kg twice daily, gemcitabine dose not given
Experimental: MIA PaCa-2 cells were injected bilaterally into the flanks of nude mice to create tumor xenografts in order to assess the efficacy of Compound 14 in treating pancreatic cancer tumors compared to gemcitabine, a current standard of care therapy for pancreatic cancer. After 3 days of letting tumor cells proliferate (at which point tumors were ˜100 mm^3 in volume), administration of gemcitabine or Compound 14 was initiated. One cohort received 20 mg/kg twice daily doses of Compound 14, one cohort received gemcitabine, and the remaining cohort was treated with vehicle. Treatment and monitoring were continued until day 42 post inoculation of tumor cells (30 days of treatment).

Compound | final tumor volume
Nc1ccn([C@@H]2O[C@H](CO)[C@@H](O)C2(F)F)c(=O)n1 [gemcitabine, reference compound] | ~800 mm^3

Test system: A549 cells
Assay: A549 xenograft large tumors, ULK inhibitor alone versus carboplatin
Format: in vivo, nude mice
Details: A549 large tumors (over 200 mm^3 at start); carboplatin 25 mg/kg every three days; day 72
Experimental: A549 cells (5M cells) were injected bilaterally into the flanks of forty-six nude mice to create tumor xenografts in order to assess the efficacy of Compound 14 in treating larger non-small cell lung cancer tumors compared to carboplatin, the current standard of care therapy for non-small cell lung cancer. After 40 days of letting tumor cells proliferate (at which point tumors were over 200 mm^3 in volume), administration of carboplatin or Compound 14 was initiated. One cohort of twelve mice received 20 mg/kg twice daily doses of Compound 14, one cohort of ten mice received 30 mg/kg twice daily doses of Compound 14, one cohort of seven mice received 25 mg/kg doses of carboplatin every three days, one cohort of seven mice received 40 mg/kg once daily doses of Compound 14, and the remaining ten mice were treated with vehicle. Treatment and monitoring was continued until day 72 post inoculation of tumor cells (32 days of treatment).

Compound | tumor volume by the end of the study
N.N.O=C([O-])C1(C(=O)[O-])CCC1.[Pt+2] [carboplatin, reference compound] | above 500 mm^3

Molecular target: T1, ULK1 (Homo sapiens, UniProt O75385)
T1 sequence (O75385 1-1050): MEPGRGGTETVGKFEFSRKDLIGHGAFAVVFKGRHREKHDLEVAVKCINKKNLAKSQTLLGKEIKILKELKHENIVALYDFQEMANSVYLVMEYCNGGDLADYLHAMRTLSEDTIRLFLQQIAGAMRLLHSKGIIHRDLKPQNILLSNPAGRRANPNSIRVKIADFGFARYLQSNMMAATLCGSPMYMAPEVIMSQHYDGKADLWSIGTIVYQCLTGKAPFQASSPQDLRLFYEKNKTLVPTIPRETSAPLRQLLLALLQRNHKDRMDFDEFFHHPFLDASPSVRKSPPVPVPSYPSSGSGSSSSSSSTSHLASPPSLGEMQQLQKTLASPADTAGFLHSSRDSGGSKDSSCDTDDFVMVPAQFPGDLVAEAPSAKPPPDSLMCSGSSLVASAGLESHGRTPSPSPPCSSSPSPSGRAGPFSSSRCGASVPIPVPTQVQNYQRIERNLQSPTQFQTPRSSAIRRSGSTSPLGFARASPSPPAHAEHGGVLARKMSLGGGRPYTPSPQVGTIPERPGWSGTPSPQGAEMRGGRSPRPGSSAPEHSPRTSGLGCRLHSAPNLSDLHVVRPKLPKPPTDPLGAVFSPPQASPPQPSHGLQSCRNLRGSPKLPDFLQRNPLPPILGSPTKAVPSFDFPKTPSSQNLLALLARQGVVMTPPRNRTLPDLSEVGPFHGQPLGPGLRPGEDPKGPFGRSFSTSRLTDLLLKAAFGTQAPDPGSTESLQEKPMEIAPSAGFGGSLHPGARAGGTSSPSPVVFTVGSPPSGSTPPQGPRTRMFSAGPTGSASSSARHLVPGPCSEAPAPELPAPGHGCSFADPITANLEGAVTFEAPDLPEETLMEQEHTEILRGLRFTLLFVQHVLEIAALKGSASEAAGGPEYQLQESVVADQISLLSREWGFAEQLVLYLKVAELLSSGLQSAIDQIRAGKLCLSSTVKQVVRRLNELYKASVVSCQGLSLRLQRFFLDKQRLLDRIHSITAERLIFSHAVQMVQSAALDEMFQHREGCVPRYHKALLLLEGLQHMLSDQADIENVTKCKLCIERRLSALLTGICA
Assay: ULK1 inhibition assay
Format: biochemical
Details: * = tested as a mixture of regioisomers

Compound | IC50
O=C1NC(=O)c2cc(Nc3ncc(C(F)(F)F)c(NC4CC4)n3)ccc21 [Compound 314] | < 200 nM
CNC(=O)CCOc1nc(Nc2cc(OC)c(OC)c(OC)c2)ncc1Br [Compound 316] | < 200 nM
COc1cc(Nc2ncc(Br)c(Nc3ccccc3O)n2)cc(OC)c1OC [Compound 317] | < 200 nM
COc1cc(Nc2ncc(Br)c(Oc3ccccc3NC(=O)C(C)(C)C)n2)cc(OC)c1OC [Compound 320] | > 2000 nM
COc1cc(Nc2ncc(Br)c(Oc3ccccc3NC(=O)C(F)(F)F)n2)cc(OC)c1OC [Compound 323] | < 200 nM
CNC(=O)c1ccccc1Oc1nc(Nc2ccc3c(c2)CCC(=O)N3)ncc1Br [Compound 325] | > 2000 nM
Oc1nc(Nc2cnc3[nH]ccc3c2)ncc1C(F)(F)F [Compound 326] | > 2000 nM
CNC(=O)Cc1ccccc1Oc1nc(Nc2cc(OC)c(OC)c(OC)c2)ncc1Br [Compound 327] | > 2000 nM
COc1cc(Nc2ncc(Br)c(Oc3ccccc3CNC(C)=O)n2)cc(OC)c1OC [Compound 328] | > 2000 nM
O=C(C1CC1)N1CCc2cc(Nc3ncc(C(F)(F)F)c(NC4CC4)n3)ccc2C1 [Compound 332] | < 200 nM
O=C1CCc2cc(Nc3ncc(C(F)(F)F)c(NCCCNC(=O)C4CC4)n3)ccc2N1 [Compound 333] | < 200 nM
O=c1[nH][nH]c(=O)c2cc(Nc3ncc(C(F)(F)F)c(NC4CC4)n3)ccc12 [Compound 334] | < 200 nM
COc1cc(Nc2ncc(Br)c(Oc3ccccc3O)n2)cc(OC)c1OC [Compound 336] | > 2000 nM
CNC(=O)c1ccccc1COc1nc(Nc2cc(OC)c(OC)c(OC)c2)ncc1Br [Compound 338] | > 2000 nM
CCN1CCOc2cc(Nc3nc(Nc4ccc5c(c4)CCC(=O)N5)ncc3Br)cnc21 [Compound 343] | < 200 nM
CCN1CCOc2cc(Nc3ncc(C(F)(F)F)c(NC4CC4)n3)cnc21 [Compound 344] | < 200 nM
COc1cc(Nc2ncc(Br)c(Oc3ccccc3NS(C)(=O)=O)n2)cc(OC)c1OC [Compound 345] | > 2000 nM
COc1cc(Nc2ncc(C(F)(F)F)c(Oc3ccccc3N)n2)cc(OC)c1OC [Compound 346] | < 200 nM
O=C1CCc2cc(Nc3ncc(C(F)(F)F)c(Nc4ccccc4CO)n3)ccc2N1 [Compound 347] | < 200 nM
COc1cc(Nc2ncc(Cl)c(Nc3ccccc3CO)n2)cc(OC)c1OC [Compound 348] | > 2000 nM
CC(=O)NNc1nc(Nc2ccc3c(c2)CCC(=O)N3)ncc1C(F)(F)F [Compound 350] | > 2000 nM
COc1cc(Nc2ncc(Br)c(Oc3cccc4ccncc34)n2)cc(OC)c1OC [Compound 351] | > 2000 nM
COc1cc(Nc2ncc(Br)c(Oc3cccc4[nH]nnc34)n2)cc(OC)c1OC [Compound 352] | > 2000 nM
OCc1ccccc1Nc1nc(Nc2cc(F)c(F)c(F)c2)ncc1Br [Compound 353] | > 2000 nM
COc1cc(Nc2ncc(Br)c(Oc3cccc(O)c3[N+](=O)[O-])n2)cc(OC)c1OC [Compound 354] | > 2000 nM
COc1cc(Nc2ncc(Br)c(Oc3ccccc3C3=NC(C)(C)CO3)n2)cc(OC)c1OC [Compound 355] | > 2000 nM
COc1cc(Nc2ncc(Br)c(Oc3ccccc3[S+](C)[O-])n2)cc(OC)c1OC (stereo not drawn) [Compound 356] | > 2000 nM
O=C1CCc2cc(Nc3ncc(C(F)(F)F)c(OCCN4CCOC4=O)n3)ccc2N1 [Compound 357] | 200 to 2000 nM
Nc1nc(N(C(=O)C2CC2)c2ccc3c(c2)CCC(=O)N3)ncc1C(F)(F)F [Compound 358] | > 2000 nM

Second part, the compound after the results:

IC50 | Compound
> 2000 nM | CNC(=O)c1ccc(OC)cc1Oc1ncc(Br)c(Nc2cc(OC)c(OC)c(OC)c2)n1 [Compound 318b]
> 2000 nM | CC(=O)Nc1ccccc1Oc1nc(Nc2ccc3c(c2)OCO3)ncc1Br [Compound 321a]
< 200 nM | Nc1ccccc1Oc1nc(Nc2ccc3c(c2)OCO3)ncc1Br [Compound 321b]
> 2000 nM | COc1cc(Nc2ncc(Br)c(Oc3cccc4cccnc34)n2)cc(OC)c1OC [Compound 324a]
> 2000 nM | COc1cc(Nc2ncc(Br)c(Oc3cccc4cc[nH]c34)n2)cc(OC)c1OC [Compound 329a]
> 2000 nM | COc1cc(Nc2nc(Oc3cccc4cc[nH]c34)ncc2Br)cc(OC)c1OC [Compound 329b]
> 2000 nM | COc1cc(Nc2ncc(Br)c(Oc3cccc4c3CCCC4)n2)cc(OC)c1OC [Compound 330a]
> 2000 nM | COc1cc(Nc2nc(Oc3cccc4c3CCCC4)ncc2Br)cc(OC)c1OC [Compound 330b]
> 2000 nM | COc1cc(Nc2ncc(Br)c(-n3nnc4ccccc43)n2)cc(OC)c1OC [Compound 331a]
200 to 2000 nM | COc1cc(Nc2nc(-n3nnc4ccccc43)ncc2Br)cc(OC)c1OC [Compound 331b]
> 2000 nM | COc1cc(Nc2ncc(Br)c(Oc3cccc4c3N(C(C)=O)CCC4)n2)cc(OC)c1OC [Compound 335a]
< 200 nM | COc1cc(Nc2nc(Oc3cccc4c3N(C(C)=O)CCC4)ncc2Br)cc(OC)c1OC [Compound 335b]

From US20230130766A1 (SALK INSTITUTE FOR BIOLOGICAL STUDIES, priority 2020, published 2023)
